According to PubChem BioAssay AID2060341 (Molecular Pharmacology Branch, DTP, NCI, 2025):
“And” between values parts separate entries of the source, which are not always exact repeats. Equal values may be shown once.

Test system: 327498-153-R-J2-PDC multicell spheroid viability
Assay: Anticancer human tumor 327498-153-R-J2-PDC patient-derived uterine carcinosarcoma cell line growth inhibition [IpAb]
Conditions: for viability, T/C: stronger effect = lower value
Text: Combinatorial screen of targeted agents with ipatasertib and abemaciclib in multi-cell type tumor spheroids
A high-throughput screen of multi-cell type tumor spheroids was designed to identify active combinations of targeted small molecules and ipatasertib or abemaciclib. Complex spheroids include a stromal component modeled by human endothelial cells (HUVEC) and fibroblasts modeled by human mesenchymal stem cells (MSCs). The concentration ranges selected for each drug and investigational agent were based upon clinically achievable concentrations if the clinical Cmax of the agent was known.
Compounds. The drugs and investigational agents: ipatasertib (NSC767898), abemaciclib(NSC768073), selumetinib (NSC741078), trametinib (758246), adavosertib (NSC754352), everolimus (NSC733504), sapanisertib (NSC764658), vemurafenib (NSC761431), venetoclax (NSC766270), copanlisib (NSC809693), apelisib (NSC765974), palbociblib (NSC758247), vemurafenib (NSC761431), dabrafenib (NSC764134), ravoxertinib (NSC781343), BMS-387032 (NSC767048), sotorasib (NSC818433), talazoparib (NSC767125) and afursertib (NSC778305), were obtained from the National Cancer Institute (NCI) Developmental Therapeutics Program Chemical Repository. The FDA-approved anticancer drug set is available from the NCI Developmental Therapeutics Program. […] The stock solutions were prepared in dimethyl sulfoxide (DMSO, Sigma-Aldrich, St. Louis, MO, cat. D2650) at 800-fold the tested concentration and stored at -70 degrees C prior to their use. All drugs and investigational agents were tested over a range starting from a high concentration at or near the clinical Cmax and decreasing in half-log increments. If the clinical Cmax for an agent had not been determined, the highest concentration tested was 10 microM.
NCI60 Cell Culture. NCI60 cell lines were obtained from the NCI Developmental Therapeutics Program Tumor Repository. For each lot of cells, the Repository performed Applied Biosystems AmpFLSTR Identifiler testing with PCR amplification to confirm consistency with the published Identifier STR profile for each cell line. Cells were kept in continuous culture for no more than 20 passages. The optimal seeding densities for each of the cell lines at each time point assessed were determined prior to performing the concentration response studies. Briefly, the NCI60 human tumor lines were grown as monolayers in RPMI 1640 medium supplemented with 10% FBS and 2 mmol/L L-glutamine.
An additional 9 lines were from the NCI60 cell line panel including MDA-MB-231 breast carcinoma, MDA-MB-468 breast carcinoma, MCF7 breast carcinoma, Hs578T breast carcinoma, MALME-3M melanoma, SK-MEL-2 melanoma, SK-OV-3 ovarian carcinoma, DU-145 prostate carcinoma, PC-3 prostate carcinoma, all cell lines along with major genetic alterations are listed on Table 2. Pooled donor human umbilical vein endothelial cells (HUVEC, Lonza, cat. CC-2519) and human mesenchymal stem cells (hMSC, Lonza, cat. PT-2501) were purchased from Lonza (Walkersville, MD).
PDMR cell lines were grown in complete medium (DC medium): Dulbecco's modified Eagle's medium (DMEM)/F12 supplemented with 5% fetal bovine serum (FBS), 2 mM L-glutamine, 100 U/mL penicillin and 100 µg/ml streptomycin, 0.4 µg/ml hydrocortisone, 10 ng/ml epidermal growth factor (EGF) recombinant human protein, 24 µg/mL adenine, and 0.1 mg/mL primocin. During culture from frozen stock vials, PDMR cells were cultured in the same medium containing 10 µM Y-27632 (see Table 3). The PDCs were cultured in complete DMEM/F12 media without 10 microM Y-27632 dihydrochloride for at least two passages prior to the screen. The pooled donor HUVEC and hMSC were cultured in endothelial cell growth medium 2 (PromoCell, Heidelberg, Germany, cat. C-22011) and mesenchymal stem cell growth medium 2 (PromoCell, cat. C-28009), respectively. For all experiments, HUVEC and hMSC were used at passages </=5.
[…]
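Further: spheroids exposed to agents for 7 days.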
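Wherever viability, T/C is given: 100% = DMSO vehicle control viability.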

| SMILES | IC50 (curve of compound) | viability, T/C (compound 0.0316 µM) | viability, T/C (compound 0.1 µM) | viability, T/C (compound 0.316 µM) | viability, T/C (compound 1 µM) | viability, T/C (compound 3.16 µM) | viability, T/C (compound 10 µM) | viability, T/C (compound 0.01 µM) | other results |
| --- | --- | --- | --- | --- | --- | --- | --- | --- | --- |
| C=CCn1c(=O)c2cnc(Nc3ccc(N4CCN(C)CC4)cc3)nc2n1-c1cccc(C(C)(C)O)n1 | 363 nM and 369 nM | 97% and 97.5% | 106% and 94.9% | 56.2% and 56.8% | 4.15% and 5.89% | 3.83% and 4.76% | 5.49% and 6.6% |  |  |
| CC(C)(C)c1cnc(CSc2cnc(NC(=O)C3CCNCC3)s2)o1 | 169 nM |  |  |  |  |  |  |  | viability, T/C (compound 0.00949 µM): 106% and 96.9%; viability, T/C (compound 0.03 µM): 108% and 105%; viability, T/C (compound 0.0949 µM): 95.8% and 93.2%; viability, T/C (compound 0.3 µM): 4.76% and 7%; viability, T/C (compound 0.949 µM): 0.89% and 1.1%; viability, T/C (compound 3 µM): 0.6% and 0.58% |
| CC(C)NCC(C(=O)N1CCN(c2ncnc3c2C(C)CC3O)CC1)c1ccc(Cl)cc1 (configuration not stated) |  |  | 98.4% [middle of 13 runs] | 80.2% [middle of 13 runs] | 59.7% [middle of 13 runs] | 48.1% [middle of 13 runs] | 34.2% [middle of 13 runs] |  | IC50 (compound alone, run of 05/18/2021): 2.46 µM [middle of 13 runs] |
| CCN1CCN(Cc2ccc(Nc3ncc(F)c(-c4cc(F)c5nc(C)n(C(C)C)c5c4)n3)nc2)CC1 |  | 72.6% [middle of 13 runs] | 62.2% [middle of 13 runs] | 57.3% [middle of 13 runs] | 56.8% [middle of 13 runs] |  |  | 92% [middle of 13 runs] |  |
| COc1c(OCCCN2CCOCC2)ccc2c3n(c(=NC(=O)c4cnc(N)nc4)nc12)CCN3 | 86.5 nM and 86.4 nM | 70.7% and 76.3% | 46.7% and 45.2% | 25.3% and 23.2% | 9.52% and 11.8% |  |  | 87.7% and 86% | viability, T/C (compound 0.00316 µM): 98.8% and 95% |

The next lines start with results.

| IC50 (curve of compound) | SMILES | viability, T/C (compound 0.0316 µM) | viability, T/C (compound 0.1 µM) | viability, T/C (compound 0.316 µM) | viability, T/C (compound 1 µM) | viability, T/C (compound 3.16 µM) | viability, T/C (compound 10 µM) | viability, T/C (compound 0.01 µM) | other results |
| --- | --- | --- | --- | --- | --- | --- | --- | --- | --- |
| > 10000 nM | C=CC(=O)N1CCN(c2nc(=O)n(-c3c(C)ccnc3C(C)C)c3nc(-c4c(O)cccc4F)c(F)cc23)C(C)C1 (configuration not stated) | 73.5% and 77.4% | 69.2% and 69.6% | 58.3% and 67.6% | 65.6% and 63.7% | 67.2% and 65% | 55.8% and 59.9% |  |  |
| > 300 nM | CC(=O)c1c(C)c2cnc(Nc3ccc(N4CCNCC4)cn3)nc2n(C2CCCC2)c1=O |  |  |  |  |  |  |  | viability, T/C (compound 0.000949 µM): 106% and 97.8%; viability, T/C (compound 0.003 µM): 96.7% and 103%; viability, T/C (compound 0.00949 µM): 99.7% and 95.5%; viability, T/C (compound 0.03 µM): 79.2% and 89.8%; viability, T/C (compound 0.0949 µM): 70.2% and 70.4%; viability, T/C (compound 0.3 µM): 71% and 56.5% |
| 12.7 nM and 11.5 nM | CC(C)n1nc(-c2ccc3oc(N)nc3c2)c2c(N)ncnc21 | 31.7% and 27.2% | 19.6% and 18.2% |  |  |  |  | 54.3% and 52.7% | viability, T/C (compound 0.000316 µM): 103% and 88.9%; viability, T/C (compound 0.001 µM): 96.1% and 101%; viability, T/C (compound 0.00316 µM): 81.9% and 88% |
| 6020 nM and 5680 nM | CC1(C)CCC(CN2CCN(c3ccc(C(=O)NS(=O)(=O)c4ccc(NCC5CCOCC5)c([N+](=O)[O-])c4)c(Oc4cnc5[nH]ccc5c4)c3)CC2)=C(c2ccc(Cl)cc2)C1 | 100% and 102% | 104% and 105% | 108% and 112% | 102% and 108% | 107% and 98.3% | 7.23% and 3.16% |  |  |
| > 10000 nM | CCCS(=O)(=O)Nc1ccc(F)c(C(=O)c2c[nH]c3ncc(-c4ccc(Cl)cc4)cc23)c1F | 105% and 102% | 116% and 103% | 106% and 101% | 106% and 98.7% | 101% and 96.1% | 87.3% and 92.8% |  |  |
